Data as given in patent US10697027B2, “Biological detection method for dioxins in serum, and diagnostic use therefor in metabolic syndrome and related conditions” (priority 2010, dated 2020).

Legend:
[1] = mouse treated with TCDD; cited from earlier work
[2] = test system: HePa1c1c7 cell line expressing pCYP1A1-luc stably; experiment: Response test with the transformed cell line expressing the recombinant reporter gene (luciferase assay); type: cell-based, mouse; details: for luciferase activity over the treatment time: treatment time 4, 8 (or 24) hours
Experimental: The cell line stably expressing pCYP1A1-luc constructed in Example <1-2> was distributed in 60 mm culture dish at the density of 1×10^5 cells, followed by culture for 48 hours. Upon completion of the culture, the medium was replaced with DMEM supplemented with 0.5% charcoal-stripped FBS but not supplemented with phenol red, and indole-3-carbinol was treated thereto at the concentrations of 0, 0.01, 0.1, 1, 10, and 100 μM for 4, 8, or 24 hours. Then, the cells were collected, followed by luciferase assay.
The cell line stably expressing pCYP1A1-luc constructed in Example <1-2> was distributed in 60 mm culture dish at the density of 2×10^5 cells, followed by culture for 24 hours. Upon completion of the culture, the medium was replaced with DMEM supplemented with 0.5% charcoal-stipped FBS but not supplemented with phenol red, and 2,3,7,8-tetrachlorodibenzo-p-dioxin (TCDD) was treated thereto at the concentrations of 0, 0.1, 1, 10, 100, and 1000 pM for 4, or 8 hours. Then, the cells were collected, followed by luciferase assay.

Row | SMILES | ATP synthesis [1] | ubiquinone (CoQ) in the liver [1] | luciferase activity compared with control not treated with TCDD ([2]; 10~1000 pM, treated for 4 or 8 hours) | luciferase activity over the treatment time [2] | luciferase activity compared with non-treated control group ([2]; 0.001~10 μM, treated for 4, 8 or 24 hours) | luciferase activity increase ([2]; concentration of 100 μM, treated for 4, 8 or 24 hours)
1 | Clc1cc2c(cc1Cl)Oc1cc(Cl)c(Cl)cc1O2 [TCDD, 2,3,7,8-tetrachlorodibenzo-p-dioxin] | suppressed | reduced | significantly increased | increased over the treatment time, which was not so significant | – | –
2 | OCc1c[nH]c2ccccc12 [indol-3-carbinol, indole-3-carbinol] | – | – | – | significant difference over the time was not detected | increased dose-dependently | at least 3 times
